In US11083729B2, “Methods of treating cancer with small molecule NF-κB inhibitors” (ImmuneTarget, Inc., priority 2017, dated 2021):

How the values were obtained:
Capan-1 = assay: CellTiter-Glo IG50, Example 8, Capan-1; type: cell-based; settings: Homo sapiens, Capan-1, 72 hours
Experimental: (§1) Various pancreatic, liver, colon, breast, and stomach cancer cell lines were exposed to the NF-κB inhibitors of the present invention, including, for example, IT-839, IT-843, IT-848, and IT-878, and assessed for IG50 in the CellTiter Glo 2.0 assay.
(§2) The cells were cultured in an atmosphere of 37° C., 5% CO2 and 95% humidity. All culture media and FBS were purchased from GIBCO, Hyclone or Sigma, USA. The media used for cell culture is described in the table below.
(§3) The cells were harvested during the logarithmic growth period and counted. Cell concentrations were adjusted to the appropriate number in appropriate medium and 90 μl cell suspensions were added to 96-well plates. When cells were added, the plates were shaken gently to distribute the cells evenly. Cells were incubated at 37° C. and 5% CO2.
(§4) 3× serial dilutions of test compound stock solutions with respective solvents were prepared. The stock solutions were diluted with culture medium to generate 10× working solutions of the test compounds. 10 μl of the 10× test compound solutions were added to each well in triplicate for each concentration. Plates were incubated for 72 hours in a humidified incubator at 37° C. and 5% CO2.
(§5) CellTiter-Glo (CTG) solution was thawed and equilibrated to room temperature. 50 μl of CTG were added to each well and the contents were mixed for 2 minutes on a plate shaker. Cells were incubated for 10 minutes before luminescence signal was recorded using Envision.
(§6) Cell viability was plotted with GraphPad Prism version 5 and the IG50 was calculated for each cell line. The graphical curves were fitted using a nonlinear regression model with a sigmoidal dose response. IG50 is the concentration of test drug where 100×T/C=50 (the optical density of the test well after a 3-day period of exposure to test drug is T; the control optical density is C).

PANC-1 = assay: CellTiter-Glo IG50, Example 8, PANC-1; type: cell-based; settings: Homo sapiens, PANC-1, 72 hours
Experimental: as §1, §2, §3, §4, §5, §6

MIAPACA-2 = assay: CellTiter-Glo IG50, Example 8, MIAPACA-2; type: cell-based; settings: Homo sapiens, MIA PaCa-2, MIAPACA-2, 72 hours
Experimental: as §1, §2, §3, §4, §5, §6

PLC/PRF/5 [1] = assay: CellTiter-Glo IG50, Example 8, PLC/PRF/5; type: cell-based; settings: Homo sapiens, PLC/PRF/5, 72 hours
Experimental: as §1, §2, §3, §4, §5, §6

HepG2 [2] = assay: CellTiter-Glo IG50, Example 8, HepG2; type: cell-based; settings: Homo sapiens, HepG2, 72 hours
Experimental: as §1, §2, §3, §4, §5, §6

Hep3B [3] = assay: CellTiter-Glo IG50, Example 8, Hep3B; type: cell-based; settings: Homo sapiens, 72 hours
Experimental: as §1, §2, §3, §4, §5, §6

HCT116 = assay: CellTiter-Glo IG50, Example 8, HCT116; type: cell-based; settings: Homo sapiens, HCT-116, HCT116, 72 hours
Experimental: as §1, §2, §3, §4, §5, §6

HT-29 = assay: CellTiter-Glo IG50, Example 8, HT-29; type: cell-based; settings: Homo sapiens, HT-29, 72 hours
Experimental: as §1, §2, §3, §4, §5, §6

LoVo = assay: CellTiter-Glo IG50, Example 8, LoVo; type: cell-based; settings: Homo sapiens, 72 hours
Experimental: as §1, §2, §3, §4, §5, §6

MCF-7 = assay: CellTiter-Glo IG50, Example 8, MCF-7; type: cell-based; settings: Homo sapiens, MCF7, MCF-7, 72 hours
Experimental: as §1, §2, §3, §4, §5, §6

MDA-MB-231 = assay: CellTiter-Glo IG50, Example 8, MDA-MB-231; type: cell-based; settings: Homo sapiens, MDA-MB-231, 72 hours
Experimental: as §1, §2, §3, §4, §5, §6

T47D = assay: CellTiter-Glo IG50, Example 8, T47D; type: cell-based; settings: Homo sapiens, 72 hours
Experimental: as §1, §2, §3, §4, §5, §6

AGS = assay: CellTiter-Glo IG50, Example 8, AGS; type: cell-based; settings: Homo sapiens, 72 hours
Experimental: as §1, §2, §3, §4, §5, §6

MKN45 = assay: CellTiter-Glo IG50, Example 8, MKN45; type: cell-based; settings: Homo sapiens, MKN-45, MKN45, 72 hours
Experimental: as §1, §2, §3, §4, §5, §6

KATO III = assay: CellTiter-Glo IG50, Example 8, KATO III; type: cell-based; settings: Homo sapiens, 72 hours
Experimental: as §1, §2, §3, §4, §5, §6

HepG2 [4] = assay: CellTiter-Glo IG50, Example 9 HCC panel, HepG2; type: cell-based; settings: Homo sapiens, HepG2, 72 hours
Experimental: as §3, §4, §5, §6, §2
(§7) Following the cell culture protocol and data analysis methods described in Example 8, the following IG50 results (in μM) were observed: […]

Hep3B [5] = assay: CellTiter-Glo IG50, Example 9 HCC panel, Hep3B; type: cell-based; settings: Homo sapiens, 72 hours
Experimental: as §3, §4, §5, §6, §2, §7

PLC/PRF/5 [6] = assay: CellTiter-Glo IG50, Example 9 HCC panel, PLC/PRF/5; type: cell-based; settings: Homo sapiens, PLC/PRF/5, 72 hours
Experimental: as §3, §4, §5, §6, §2, §7

HUH7 [7] = assay: CellTiter-Glo IG50, Example 9 HCC panel, HUH7; type: cell-based; settings: Homo sapiens, Huh-7, HUH7, 72 hours
Experimental: as §3, §4, §5, §6, §2, §7

JHH5 [8] = assay: CellTiter-Glo IG50, Example 9 HCC panel, JHH5; type: cell-based; settings: JHH5, 72 hours
Experimental: as §3, §4, §5, §6, §2, §7

PBMC [9] = assay: CellTiter-Glo IG50, Example 9 HCC panel, PBMC; type: cell-based; settings: 72 hours
Experimental: as §3, §4, §5, §6, §2, §7

SNU878 [10] = assay: CellTiter-Glo IG50, Example 9 HCC panel, SNU878; type: cell-based; settings: SNU878, 72 hours
Experimental: as §3, §4, §5, §6, §2, §7

HepG2 [11] = assay: CellTiter-Glo IG50, Example 10 HCC panel, HepG2; type: cell-based; settings: Homo sapiens, HepG2, 72 hours
Experimental: as §3, §4, §5, §6, §2
(§8) Following the cell culture protocol and data analysis method described in Example 8, the following IG50 results (in μM) were observed: […]

Hep3B [12] = assay: CellTiter-Glo IG50, Example 10 HCC panel, Hep3B; type: cell-based; settings: Homo sapiens, 72 hours
Experimental: as §3, §4, §5, §6, §2, §8

PLC/PRF/5 [13] = assay: CellTiter-Glo IG50, Example 10 HCC panel, PLC/PRF/5; type: cell-based; settings: Homo sapiens, PLC/PRF/5, 72 hours
Experimental: as §3, §4, §5, §6, §2, §8

HUH7 [14] = assay: CellTiter-Glo IG50, Example 10 HCC panel, HUH7; type: cell-based; settings: Homo sapiens, Huh-7, HUH7, 72 hours
Experimental: as §3, §4, §5, §6, §2, §8

JHH5 [15] = assay: CellTiter-Glo IG50, Example 10 HCC panel, JHH5; type: cell-based; settings: JHH5, 72 hours
Experimental: as §3, §4, §5, §6, §2, §8

PBMC [16] = assay: CellTiter-Glo IG50, Example 10 HCC panel, PBMC; type: cell-based; settings: 72 hours
Experimental: as §3, §4, §5, §6, §2, §8

SNU878 [17] = assay: CellTiter-Glo IG50, Example 10 HCC panel, SNU878; type: cell-based; settings: SNU878, 72 hours
Experimental: as §3, §4, §5, §6, §2, §8

c-Rel protein = target: T1, c-Rel protein (Homo sapiens, UniProt Q04864); assay: Electrophoretic Mobility Shift Assay (EMSA), c-Rel binding to CD28RE oligonucleotide; settings: 10 nM c-Rel protein
T1 sequence (Q04864 1-619): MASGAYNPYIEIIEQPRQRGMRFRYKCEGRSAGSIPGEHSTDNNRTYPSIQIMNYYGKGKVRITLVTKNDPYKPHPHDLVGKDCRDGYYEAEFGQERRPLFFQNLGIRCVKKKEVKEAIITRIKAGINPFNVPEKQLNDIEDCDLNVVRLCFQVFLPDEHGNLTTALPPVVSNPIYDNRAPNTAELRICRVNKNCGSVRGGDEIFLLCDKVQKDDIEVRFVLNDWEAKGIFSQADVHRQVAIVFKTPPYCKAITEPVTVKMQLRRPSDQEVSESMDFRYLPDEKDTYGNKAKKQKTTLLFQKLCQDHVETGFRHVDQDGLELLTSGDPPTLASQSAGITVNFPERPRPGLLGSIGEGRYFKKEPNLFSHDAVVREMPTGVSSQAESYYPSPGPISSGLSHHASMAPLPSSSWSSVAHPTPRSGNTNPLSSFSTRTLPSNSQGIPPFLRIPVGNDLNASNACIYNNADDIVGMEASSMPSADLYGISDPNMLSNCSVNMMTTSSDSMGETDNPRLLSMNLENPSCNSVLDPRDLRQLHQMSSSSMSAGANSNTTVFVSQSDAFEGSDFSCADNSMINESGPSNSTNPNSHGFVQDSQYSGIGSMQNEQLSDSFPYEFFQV
Experimental: DNA binding reaction (20 μL) was carried out in 1×DNA Binding Buffer (10 mM Tris, 40 mM NaCl, 1 mM EDTA, 4% glycerol) with 10 nM c-Rel protein and 0.5 ng phosphor-labeled CD28RE oligonucleotide for 10 minutes at room temperature in 96-well plates. Test compounds, in serial dilutions, were added into each well, and further incubated for 15 minutes before loading onto native 5% polyacrylamide gel. Electrophoresis proceeded for 2.5 hours at 160V. Radioactive signals were quantified using Phospho-Imager. IC50 of compounds of example 1 to 75 were determined by quantifying the intensity of Rel/NF-κB inhibition in EMSA using phospho-imager. An example of EMSA data of the present invention is shown for compound 6 in FIG. 2.

NF-κB = NF-κB GFP assay in NFκB/Jurkat/GFP transcriptional reporter cells stimulated with TNF-α; type: cell-based; settings: Homo sapiens, TNF-α 5 ng/ml, 24 hours, read-out: NF-KB GFP IC50
Experimental: NFκB/Jurkat/GFP transcriptional reporter cell line was obtained from SBI System Biosciences. NF-κB/Jurkat/GFP™ Reporter cells (5×10^5 cells) were plated at a concentration of 1 million cells/ml into each well of a 24-well plate. TNF-α (5 ng/ml) was added. Compounds were added via serial dilutions to corresponding wells. After 24 hours, 100 μl of the cells were transferred to a well of a Costar® UV plate (96 well, No lid, w/UV Transparent Flat Bottom, Corning, N.Y., Cat #3635) and the intensity of GFP fluorescence was measured (Excitation 485+/−20, Emission 528+/−20) in a Synergy™ HT Multi-Detection Microplate Reader (BioTech, Winooski, Vt.). The intensities of GFP measured were plotted against the […].

SMILES	IC50 (HepG2 [4]) [µM]	IC50 (Hep3B [5]) [µM]	IC50 (PLC/PRF/5 [6]) [µM]	IC50 (HUH7 [7]) [µM]	IC50 (JHH5 [8]) [µM]	IC50 (PBMC [9]) [µM]	IC50 (SNU878 [10]) [µM]	IC50 (HepG2 [11]) [µM]	IC50 (Hep3B [12]) [µM]	IC50 (PLC/PRF/5 [13]) [µM]	IC50 (HUH7 [14]) [µM]	IC50 (JHH5 [15]) [µM]	IC50 (PBMC [16]) [µM]	IC50 (SNU878 [17]) [µM]	further results
CCCCCCOc1ccc2cc3c(=O)[nH]c(=O)nc-3oc2c1Cl [IT-848]	5.84	3.51	> 16	4.25	12.9	1.19	14.6	9.95	6.09	> 16	7.72	13.4	3.63	> 16	IC50 (Capan-1): > 16 µM; IC50 (PANC-1): 9.88 µM; IC50 (MIAPACA-2): > 16 µM; IC50 (PLC/PRF/5 [1]): > 16 µM; IC50 (HepG2 [2]): 6.7 µM; IC50 (Hep3B [3]): 2.43 µM; IC50 (HCT116): > 16 µM; IC50 (HT-29): > 16 µM; IC50 (LoVo): 5.07 µM; IC50 (MCF-7): 5.19 µM; IC50 (MDA-MB-231): 2.35 µM; IC50 (T47D): 6.14 µM; IC50 (AGS): 7.67 µM; IC50 (MKN45): > 16 µM; IC50 (KATO III): > 16 µM
CC(C)(C)CCOc1ccc2cc3c(=O)[nH]c(=O)nc-3oc2c1Cl [IT-845]	4.14	1.81	7.66	2.72	8.11	0.274	10.7	6.95	4.03	9.22	6.02	10.1	2.4	9.8	–
COc1cc(OC)c2cc3c(=O)[nH]c(=O)nc-3oc2c1 [compound 14, 6,8-dimethoxy-2H-chromeno[2,3-d]pyrimidine-2,4(3H)-dione]	–	–	–	–	–	–	–	–	–	–	–	–	–	–	IC50 (c-Rel protein): < 1 µM; IC50 (NF-κB): 8.2 µM
